Like-named read-outs stand apart in the source and are kept apart here.
Legend:
Assay in all cases: Test C pre-/postemergence greenhouse test, plant response rating 0-100
Format in all cases: in vivo
[1] = test system: winter wheat (Triticum aestivum); details: Triticum aestivum; for plant injury at 62 g/ha: 62 g ai/ha; for plant injury at 125 g/ha: 125 g ai/ha; for plant injury at 250 g/ha: 250 g ai/ha; for plant injury at 500 g/ha: 500 g ai/ha
Description: (§1) Seeds of plant species selected from blackgrass (Alopecurus myosuroides), Italian ryegrass (Lolium multiflorum), winter wheat (Triticum aestivum), galium (catchweed bedstraw, Galium aparine), corn (Zea mays), large (Lg) crabgrass (Digitaria sanguinalis), giant foxtail (Setaria faberii), johnsongrass (Sorghum halepense), lambsquarters (Chenopodium album), morningglory (Ipomoea coccinea), yellow nutsedge (Cyperus esculentus), pigweed (Amaranthus retroflexus), ragweed (common ragweed, Ambrosia elatior), soybean (Glycine max), barnyardgrass (Echinochloa crus-galli), oilseed rape (Brassica napus), waterhemp (common waterhemp, Amaranthus rudis), and velvetleaf (Abutilon theophrasti) were planted into a blend of loam soil and sand and treated preemergence with test chemicals formulated in a non-phytotoxic solvent mixture which included a surfactant.
(§2) At the same time, plants selected from these crop and weed species and also winter barley (Hordeum vulgare), bermudagrass (Cynodon dactylon), downy bromegrass (Bromus tectorum), canarygrass (Phalaris minor), cocklebur (common cocklebur, Xanthium strumarium), woolly cupgrass (Eriochloa villosa), deadnettle (henbit deadnettle, Lamium amplexicaule), green foxtail (Setaria viridis), goosegrass (Eleusine indica), surinam grass (Brachiaria decumbens), windgrass (Apera spica-venti), chickweed (common chickweed, Stellaria media), kochia (Kochia scoparia), and wild oat (Avena fatua), were planted in pots containing Redi-Earth® planting medium (Scotts Company, 14111 Scottslawn Road, Marysville, Ohio 43041) comprising spaghnum peat moss, vermiculite, wetting agent and starter nutrients and treated with postemergence applications of test chemicals formulated in the same manner. Plants ranged in height from 2 to 18 cm (1- to 4-leaf stage) for postemergence treatments. Treated plants and controls were maintained in a greenhouse for 13 to 15 days, after which time all species were compared to controls and visually evaluated. Plant response ratings, summarized in Table C, are based on a scale of 0 to 100 where 0 is no effect and 100 is complete control. A dash (-) response means no test result.

[2] = test system: Italian ryegrass (Lolium multiflorum); details: Lolium multiflorum; for pest or weed control at 62 g/ha: 62 g ai/ha; for pest or weed control at 125 g/ha: 125 g ai/ha; for pest or weed control at 250 g/ha: 250 g ai/ha; for pest or weed control at 500 g/ha: 500 g ai/ha
Description: as §1, §2

[3] = test system: large (Lg) crabgrass (Digitaria sanguinalis); details: Digitaria sanguinalis; for pest or weed control at 62 g/ha: 62 g ai/ha; for pest or weed control at 125 g/ha: 125 g ai/ha; for pest or weed control at 250 g/ha: 250 g ai/ha; for pest or weed control at 500 g/ha: 500 g ai/ha
Description: as §1, §2

[4] = test system: morningglory (Ipomoea coccinea); details: Ipomoea; for pest or weed control at 62 g/ha: 62 g ai/ha; for pest or weed control at 125 g/ha: 125 g ai/ha; for pest or weed control at 250 g/ha: 250 g ai/ha; for pest or weed control at 500 g/ha: 500 g ai/ha
Description: as §1, §2

corn (Zea mays) = details: Zea mays; for Corn plant response rating (crop injury, 0 = no effect, 100 = complete kill) at 250 g/ha: 250 g ai/ha; for Corn plant response rating (crop injury, 0 = no effect, 100 = complete kill) at 500 g/ha: 500 g ai/ha
Description: as §1, §2

[5] = test system: velvetleaf (Abutilon theophrasti); details: Abutilon theophrasti; for pest or weed control at 62 g/ha: 62 g ai/ha; for pest or weed control at 125 g/ha: 125 g ai/ha; for pest or weed control at 250 g/ha: 250 g ai/ha; for pest or weed control at 500 g/ha: 500 g ai/ha
Description: as §1, §2

[6] = test system: pigweed (Amaranthus retroflexus); details: Amaranthus retroflexus, post-emergence, Postemergence
Description: as §1, §2

[7] = post-emergence, Postemergence, read-out: Plant response rating (0 to 100), Wheat
[8] = post-emergence, Postemergence, scale 0 to 100
[9] = pre-emergence, Preemergence, read-out: Plant response rating, Wheat
[10] = post-emergence, Postemergence, read-out: Plant response rating (0 to 100), Ryegrass, Italian
[11] = pre-emergence, Preemergence, read-out: Plant response rating, Ryegrass, Italian
[12] = post-emergence, Postemergence, read-out: Plant response rating (0 to 100), Crabgrass, Large
[13] = pre-emergence, Preemergence, read-out: Plant response rating, Crabgrass, Large
[14] = post-emergence, Postemergence, read-out: Plant response rating (0 to 100), Morningglory
[15] = pre-emergence, Preemergence, read-out: Plant response rating, Morningglory
[16] = post-emergence, Postemergence, read-out: Plant response rating (0 to 100), Velvetleaf
[17] = pre-emergence, Preemergence, read-out: Plant response rating, Velvetleaf

CCOC(OCC)(c1ccccc1)c1c[nH]nc1-c1cc(Cl)cc(Cl)c1 [Compound 14, 3-(3,5-dichlorophenyl)-4-(diethoxyphenylmethyl)-1H-pyrazole]
5%: plant injury at 500 g/ha [1, 8] | pest or weed control at 500 g/ha [2, 8] | pest or weed control at 500 g/ha [4, 8] | Corn plant response rating (crop injury, 0 = no effect, 100 = complete kill) at 250 g/ha (corn (Zea mays); [8]) | Corn plant response rating (crop injury, 0 = no effect, 100 = complete kill) at 500 g/ha (corn (Zea mays); [8])
85%: pest or weed control at 500 g/ha [5, 8] | pest or weed control at 250 g/ha ([5]; pre-emergence, Preemergence) | pest or weed control at 62 g/ha ([6]; 62 g ai/ha, read-out: Plant response rating (0 to 100), Pigweed)
100%: pest or weed control at 250 g/ha ([6]; 250 g ai/ha, scale 0 to 100) | pest or weed control at 500 g/ha ([6]; 500 g ai/ha, scale 0 to 100)
98%: pest or weed control at 500 g/ha ([5]; pre-emergence, Preemergence) | pest or weed control at 125 g/ha ([6]; 125 g ai/ha, read-out: Plant response rating (0 to 100), Pigweed)
80%: pest or weed control at 250 g/ha [5, 8]
0%: plant injury at 62 g/ha [1, 7] | plant injury at 125 g/ha [1, 7] | plant injury at 250 g/ha [1, 8] | plant injury at 62 g/ha [1, 9] | plant injury at 125 g/ha [1, 9] | plant injury at 250 g/ha ([1]; pre-emergence, Preemergence) | plant injury at 500 g/ha ([1]; pre-emergence, Preemergence) | pest or weed control at 62 g/ha [2, 10] | pest or weed control at 125 g/ha [2, 10] | pest or weed control at 250 g/ha [2, 8] | pest or weed control at 62 g/ha [2, 11] | pest or weed control at 125 g/ha [2, 11] | pest or weed control at 250 g/ha ([2]; pre-emergence, Preemergence) | pest or weed control at 500 g/ha ([2]; pre-emergence, Preemergence) | pest or weed control at 62 g/ha [3, 12] | pest or weed control at 125 g/ha [3, 12] | pest or weed control at 250 g/ha [3, 8] | pest or weed control at 500 g/ha [3, 8] | pest or weed control at 62 g/ha [3, 13] | pest or weed control at 125 g/ha [3, 13] | pest or weed control at 250 g/ha ([3]; pre-emergence, Preemergence) | pest or weed control at 500 g/ha ([3]; pre-emergence, Preemergence) | pest or weed control at 62 g/ha [4, 14] | pest or weed control at 125 g/ha [4, 14] | pest or weed control at 250 g/ha [4, 8] | pest or weed control at 62 g/ha [4, 15] | pest or weed control at 125 g/ha [4, 15] | pest or weed control at 250 g/ha ([4]; pre-emergence, Preemergence) | pest or weed control at 500 g/ha ([4]; pre-emergence, Preemergence) | plant injury at 62 g/ha (corn (Zea mays); post-emergence, Postemergence, 62 g ai/ha) | plant injury at 125 g/ha (corn (Zea mays); post-emergence, Postemergence, 125 g ai/ha) | Corn plant response rating (crop injury, 0 = no effect, 100 = complete kill) at 62 g/ha (corn (Zea mays); pre-emergence, Preemergence, 62 g ai/ha) | Corn plant response rating (crop injury, 0 = no effect, 100 = complete kill) at 125 g/ha (corn (Zea mays); pre-emergence, Preemergence, 125 g ai/ha) | Corn plant response rating (crop injury, 0 = no effect, 100 = complete kill) at 250 g/ha (corn (Zea mays); pre-emergence, Preemergence) | Corn plant response rating (crop injury, 0 = no effect, 100 = complete kill) at 500 g/ha (corn (Zea mays); pre-emergence, Preemergence)
50%: pest or weed control at 125 g/ha [5, 17]
75%: pest or weed control at 62 g/ha [5, 16] | pest or weed control at 125 g/ha [5, 16] | pest or weed control at 62 g/ha [5, 17]
